Assay results from ChEMBL document CHEMBL1201862, “PubChem BioAssay data set” (2004).
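The compound was tested at five concentrations on cells cultured in 96-well plates, with a 48-hour exposure period. At the GI50, growth is halved.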 Calls of active or inactive are those of the source. No stated cut-off is given here; in the data, active = GI50 up to about 1.1 µM and inactive = higher.

Columns and labels:
Assay in all cases: NCI-60 cell line screen, 48 h
SN12C = test system: SN12C
HCT-116 = test system: HCT-116
UO-31 = test system: UO-31
MDA-MB-231 = test system: MDA-MB-231
Hs-578T = test system: Hs-578T
OVCAR-5 = test system: OVCAR-5
NCI-H460 = test system: NCI-H460
SK-MEL-28 = test system: SK-MEL-28
KM12 = test system: KM12
NCI-H226 = test system: NCI-H226
CAKI-1 = test system: CAKI-1
HOP-62 = test system: HOP-62
SK-MEL-5 = test system: SK-MEL-5
UACC-62 = test system: UACC-62
MDA-N = test system: MDA-N
SK-MEL-2 = test system: SK-MEL-2
NCI-H522 = test system: NCI-H522
A549 = test system: A549
HL-60 = test system: HL-60
SF-268 = test system: SF-268
T47D = test system: T47D
SF-539 = test system: SF-539
MCF7 = test system: MCF7
HCT-15 = test system: HCT-15
SK-OV-3 = test system: SK-OV-3
ACHN = test system: ACHN
MDA-MB-435 = test system: MDA-MB-435
IGROV-1 = test system: IGROV-1
HOP-92 = test system: HOP-92
SNB-19 = test system: SNB-19
A498 = test system: A498
SF-295 = test system: SF-295
SNB-75 = test system: SNB-75
UACC-257 = test system: UACC-257
OVCAR-8 = test system: OVCAR-8
TK-10 = test system: TK-10
786-0 = test system: 786-0
OVCAR-3 = test system: OVCAR-3
NCI-H23 = test system: NCI-H23
U-251 = test system: U-251
EKVX = test system: EKVX
PC-3 = test system: PC-3
COLO 205 = test system: COLO 205
DU-145 = test system: DU-145
HT-29 = test system: HT-29
BT-549 = test system: BT-549
OVCAR-4 = test system: OVCAR-4
LOX IMVI = test system: LOX IMVI
M14 = test system: M14
SW-620 = test system: SW-620

For `N=C(N)N/N=C/c1c(-c2ccc(Cl)c(Cl)c2Cl)nc2sccn12`, the GI50 (SN12C) was 1.5 µM (inactive), the GI50 (HCT-116) was 1.55 µM (inactive) and the GI50 (UO-31) was 1.46 µM (inactive). The GI50 (MDA-MB-231) was 1.21 µM (inactive), the GI50 (Hs-578T) was 1.91 µM (inactive) and the GI50 (OVCAR-5) was 1.49 µM (inactive). The GI50 (NCI-H460) was 1.7 µM (inactive), the GI50 (SK-MEL-28) was 1.73 µM (inactive) and the GI50 (KM12) was 1.58 µM (inactive). The GI50 (NCI-H226) was 1.68 µM (inactive), the GI50 (CAKI-1) was 1.82 µM (inactive) and the GI50 (HOP-62) was 1.69 µM (inactive). The GI50 (SK-MEL-5) was 1.74 µM (inactive), the GI50 (UACC-62) was 1.44 µM (inactive) and the GI50 (MDA-N) was 1.59 µM (inactive). For the same molecule, the GI50 (SK-MEL-2) was 1.74 µM (inactive), the GI50 (NCI-H522) was 1.23 µM (inactive) and the GI50 (A549) was 1.53 µM (inactive). For the same molecule, the GI50 (HL-60) was 1.63 µM (inactive), the GI50 (SF-268) was 1.76 µM (inactive) and the GI50 (T47D) was 1.59 µM (inactive). The GI50 (SF-539) was 3.33 µM (inactive), the GI50 (MCF7) was 2.05 µM (inactive) and the GI50 (HCT-15) was 1.63 µM. For the same molecule, the GI50 (SK-OV-3) was 1.91 µM (inactive), the GI50 (ACHN) was 3.23 µM (inactive) and the GI50 (MDA-MB-435) was 1.85 µM (inactive). The GI50 (IGROV-1) was 1.27 µM (inactive), the GI50 (HOP-92) was 1.44 µM (inactive) and the GI50 (SNB-19) was 1.33 µM (inactive). The GI50 (A498) was 1.1 µM (active), the GI50 (SF-295) was 1.79 µM (inactive) and the GI50 (SNB-75) was 1.49 µM (inactive). For the same molecule, the GI50 (UACC-257) was 1.65 µM (inactive), the GI50 (OVCAR-8) was 1.71 µM (inactive) and the GI50 (TK-10) was 1.4 µM (inactive). The GI50 (786-0) was 1.41 µM (inactive), the GI50 (OVCAR-3) was 1.57 µM (inactive) and the GI50 (NCI-H23) was 1.29 µM (inactive). The GI50 (U-251) was 1.2 µM (inactive), the GI50 (EKVX) was 1.5 µM (inactive) and the GI50 (PC-3) was 2.72 µM (inactive). For the same molecule, the GI50 (COLO 205) was 1.42 µM (inactive), the GI50 (DU-145) was 1.7 µM (inactive) and the GI50 (HT-29) was 1.64 µM (inactive). For the same molecule, the GI50 (BT-549) was 1.56 µM (inactive), the GI50 (OVCAR-4) was 2.1 µM (inactive) and the GI50 (LOX IMVI) was 1.64 µM (inactive). The GI50 (M14) was 1.57 µM (inactive) and the GI50 (SW-620) was 1.69 µM (inactive).
